Measurements from PubChem BioAssay AID330 (DTP/NCI, 2004).
Values joined by “and” are separate entries in the source; they are usually repeats but may differ in a detail not shown here. Equal values may be shown once. Inconclusive results and toxic doses are left out. The calls were made as follows: active = survival T/C of 150% or more; inactive = T/C below 125% in these data.

System: P388 leukemia ip, CD2F1 mice, survival T/C
Test: NCI In Vivo Anticancer Drug Screen. Data for tumor model P388 Leukemia (intraperitoneal) in CD2F1 (CDF1) mice
Conditions: endpoint: median survival time, higher = longer survival
Method in brief: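 Mice carrying the transplanted tumor received test compound or vehicle. Survival was recorded in each group, and the value is the treated-group measurement divided by that of the vehicle-treated control group.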

[1] = dose: 100.0 mg/kg/injection, schedule: Q04DX003 (ip), vehicle: saline
[2] = dose: 200.0 mg/kg/injection, schedule: Q04DX003 (ip), vehicle: saline
[3] = dose: 50.0 mg/kg/injection, schedule: Q01DX005 (ip), vehicle: saline with Tween-80
[4] = dose: 100.0 mg/kg/injection, schedule: Q01DX005 (ip), vehicle: saline with Tween-80
[5] = dose: 50.0 mg/kg/injection, schedule: Q01DX009 (ip), vehicle: saline with Tween-80
[6] = dose: 100.0 mg/kg/injection, schedule: Q01DX009 (ip), vehicle: saline with Tween-80
[7] = dose: 200.0 mg/kg/injection, schedule: Q01DX009 (ip), vehicle: saline with Tween-80
[8] = dose: 200.0 mg/kg/injection, schedule: Q01DX005 (ip), vehicle: saline with Tween-80
[9] = dose: 50.0 mg/kg/injection, schedule: Q01DX005 (ip), vehicle: Klucel (hydroxypropylcellulose) (HPC)
[10] = dose: 100.0 mg/kg/injection, schedule: Q01DX005 (ip), vehicle: Klucel (hydroxypropylcellulose) (HPC)
[11] = dose: 200.0 mg/kg/injection, schedule: Q01DX005 (ip), vehicle: Klucel (hydroxypropylcellulose) (HPC)
[12] = dose: 400.0 mg/kg/injection, schedule: Q01DX009 (ip), vehicle: saline with Tween-80
[13] = dose: 50.0 mg/kg/injection, schedule: Q01DX009 (ip), vehicle: Klucel (hydroxypropylcellulose) (HPC)
[14] = dose: 100.0 mg/kg/injection, schedule: Q01DX009 (ip), vehicle: Klucel (hydroxypropylcellulose) (HPC)
[15] = dose: 200.0 mg/kg/injection, schedule: Q01DX009 (ip), vehicle: Klucel (hydroxypropylcellulose) (HPC)
[16] = dose: 50.0 mg/kg/injection, schedule: Q01DX009 (ip), vehicle: saline
[17] = dose: 60.0 mg/kg/injection, schedule: Q01DX005 (ip), vehicle: saline with Tween-80
[18] = dose: 120.0 mg/kg/injection, schedule: Q01DX005 (ip), vehicle: saline with Tween-80
[19] = dose: 240.0 mg/kg/injection, schedule: Q01DX005 (ip), vehicle: saline with Tween-80

Measured: T/C

CC(C)CNC12CN3CN(CN(C3)C1)C2
inactive: [1] 98 % of control | [2] 90 % of control | dose: 400.0 mg/kg/injection, schedule: Q04DX003 (ip), vehicle: saline 92 % of control

Cc1ccc(NCc2ccccn2)nc1
inactive: [3] 99 % of control | [4] 89 % of control

COc1cc([N+](=O)[O-])cc2cc(C)c(=O)oc12
inactive: [5] 99 % of control | [6] 91 % of control | [7] 91 % of control

CCOC(=O)COc1ccc(Cc2ccc3c(c2)OCO3)cc1C
inactive: [3] 97 % of control | [4] 97 % of control | [8] 93 % of control

C[CH2][Sn]1([CH2]C)[O]S(=O)(=O)[O]1
inactive: dose: 1.56 mg/kg/injection, schedule: Q01DX005 (ip), vehicle: saline 124 % of control

COc1ccc2oc3cccc(NCCN(C)C)c3c(=O)c2c1
inactive: dose: 25.0 mg/kg/injection, schedule: Q01DX005 (ip), vehicle: Klucel (hydroxypropylcellulose) (HPC) 105 % of control | [9] 100 % of control | [10] 107 % of control | [11] 107 % of control

CCOC(=O)CCC(NC(=O)c1ccc(NS(=O)(=O)c2ccc(C)cc2)cc1)C(=O)OCC (stereo not given)
inactive: dose: 3.13 mg/kg/injection, schedule: Q01DX009 (ip), vehicle: saline with Tween-80 93 % of control | dose: 6.25 mg/kg/injection, schedule: Q01DX009 (ip), vehicle: saline with Tween-80 93 % of control | dose: 12.5 mg/kg/injection, schedule: Q01DX009 (ip), vehicle: saline with Tween-80 86 % of control | [5] 110 % of control | [6] 100 % of control | [7] 99 % of control | [12] 99 % of control

Cc1ccc(S(=O)(=O)C(Sc2ccccc2)=S=NC(C)(C)C)cc1
inactive: [13] 104 % of control | [14] 98 % of control | [15] 109 % of control

CNC(=O)n1cnc2ccccc21
inactive: [6] 110 % of control and 111 % of control | [7] 105 % of control and 118 % of control | [12] 120 % of control and 124 % of control

[Co].[N-]=C=S.[N-]=C=S.[N-]=C=S.[NH-]CC[N-]CC[NH-]
inactive: dose: 2.5 mg/kg/injection, schedule: Q01DX009 (ip), vehicle: saline 114 % of control | dose: 5.0 mg/kg/injection, schedule: Q01DX009 (ip), vehicle: saline 114 % of control | dose: 10.0 mg/kg/injection, schedule: Q01DX009 (ip), vehicle: saline 107 % of control | dose: 22.0 mg/kg/injection, schedule: Q01DX009 (ip), vehicle: saline 88 % of control | dose: 44.0 mg/kg/injection, schedule: Q01DX009 (ip), vehicle: saline 100 % of control | [16] 118 % of control

Nc1cccc(-c2nn[nH]n2)c1
inactive: [3] 98 % of control | [4] 102 % of control | [8] 88 % of control

COc1cccc(C2OC3=C(Nc4ccc(Cl)cc4N3)C2=O)c1 (stereo not given)
inactive: [9] 93 % of control | [10] 104 % of control | [11] 90 % of control

c1ccc(CN2COc3c(ccc4c3OCN(Cc3ccccc3)C4)C2)cc1
inactive: dose: 3.12 mg/kg/injection, schedule: Q01DX009 (ip), vehicle: Klucel (hydroxypropylcellulose) (HPC) 107 % of control | dose: 6.25 mg/kg/injection, schedule: Q01DX009 (ip), vehicle: Klucel (hydroxypropylcellulose) (HPC) 104 % of control and 95 % of control | dose: 12.5 mg/kg/injection, schedule: Q01DX009 (ip), vehicle: Klucel (hydroxypropylcellulose) (HPC) 103 % of control | dose: 25.0 mg/kg/injection, schedule: Q01DX009 (ip), vehicle: Klucel (hydroxypropylcellulose) (HPC) 94 % of control

O=c1c2cc(Br)ccc2nc2n1N=C(c1ccccc1)C(c1ccccc1)=NN2
inactive: dose: 50.0 mg/kg/injection, schedule: Q04DX002 (ip), vehicle: Klucel (hydroxypropylcellulose) (HPC) 88 % of control | dose: 100.0 mg/kg/injection, schedule: Q04DX002 (ip), vehicle: Klucel (hydroxypropylcellulose) (HPC) 91 % of control | dose: 200.0 mg/kg/injection, schedule: Q04DX002 (ip), vehicle: Klucel (hydroxypropylcellulose) (HPC) 87 % of control

CC(C)OC(=O)C1(N)CCCC1
inactive: [16] 97 % of control | dose: 100.0 mg/kg/injection, schedule: Q01DX009 (ip), vehicle: saline 87 % of control | [1] 95 % of control | [2] 104 % of control

CC1N[P+]2(Nc3ccccc3O2)OC1=O (stereo not given)
inactive: dose: 100.0 mg/kg/injection, schedule: Q01DX001 (ip), vehicle: Klucel (hydroxypropylcellulose) (HPC) 103 % of control | dose: 200.0 mg/kg/injection, schedule: Q01DX001 (ip), vehicle: Klucel (hydroxypropylcellulose) (HPC) 103 % of control | dose: 400.0 mg/kg/injection, schedule: Q01DX001 (ip), vehicle: Klucel (hydroxypropylcellulose) (HPC) 106 % of control

CCCCCCCCCCCC1C(C#N)C(=O)NC(=O)C1C#N (stereo not given)
inactive: [13] 103 % of control | [14] 94 % of control | [15] 100 % of control

CCOC(=O)C(=C(SC)SC)[n+]1ccc(C)cc1
inactive: dose: 12.5 mg/kg/injection, schedule: Q04DX002 (ip), vehicle: saline with Tween-80 104 % of control

Cc1cn2c(n1)Nc1sc3c(c1C2)CCCC3
inactive: [17] 101 % of control | [18] 103 % of control | [19] 100 % of control

CCCCP(=O)(CC(=O)O)c1ccccc1 (stereo not given)
inactive: [17] 98 % of control | [18] 99 % of control | [19] 102 % of control

N#Cc1c2c(c(=S)n(-c3ccc(Cl)cc3)c1N)CCCC2
inactive: dose: 60.0 mg/kg/injection, schedule: Q01DX005 (ip), vehicle: Klucel + Tween-80 92 % of control | dose: 120.0 mg/kg/injection, schedule: Q01DX005 (ip), vehicle: Klucel + Tween-80 91 % of control | dose: 240.0 mg/kg/injection, schedule: Q01DX005 (ip), vehicle: Klucel + Tween-80 91 % of control

COc1ccc2[nH]c3c(c(=O)n(C)c(=O)n3C)c2c1
inactive: [9] 92 % of control | [10] 93 % of control | [11] 92 % of control

O=C(O)CCCCCCCCCCOc1ccc(Cl)cc1
inactive: dose: 50.0 mg/kg/injection, schedule: Q04DX003 (ip), vehicle: Klucel (hydroxypropylcellulose) (HPC) 96 % of control | dose: 100.0 mg/kg/injection, schedule: Q04DX003 (ip), vehicle: Klucel (hydroxypropylcellulose) (HPC) 99 % of control | dose: 200.0 mg/kg/injection, schedule: Q04DX003 (ip), vehicle: Klucel (hydroxypropylcellulose) (HPC) 105 % of control | dose: 400.0 mg/kg/injection, schedule: Q04DX003 (ip), vehicle: Klucel (hydroxypropylcellulose) (HPC) 92 % of control

CC1=NCCN1CCNC(=O)c1ccc(C(=O)NCCN2CCN=C2C)cc1
inactive: dose: 1.88 mg/kg/injection, schedule: Q01DX005 (ip), vehicle: saline with Tween-80 105 % of control | dose: 3.75 mg/kg/injection, schedule: Q01DX005 (ip), vehicle: saline with Tween-80 100 % of control | dose: 7.5 mg/kg/injection, schedule: Q01DX005 (ip), vehicle: saline with Tween-80 100 % of control and 115 % of control

CCCC(=O)C(CC)C1(C(=O)OC)NC(=S)NC(=O)C1C#N (stereo not given)
inactive: dose: 60.0 mg/kg/injection, schedule: Q01DX005 (ip), vehicle: saline 98 % of control | dose: 120.0 mg/kg/injection, schedule: Q01DX005 (ip), vehicle: saline 105 % of control | dose: 240.0 mg/kg/injection, schedule: Q01DX005 (ip), vehicle: saline 98 % of control

Cn1c(N)cc2nc3ccccc3n2c1=O
inactive: [17] 96 % of control | [18] 92 % of control | [19] 89 % of control

CN(C)c1cc[n+](C=O)cc1
inactive: dose: 3.75 mg/kg/injection, schedule: Q01DX005 (ip), vehicle: saline 102 % of control | dose: 7.5 mg/kg/injection, schedule: Q01DX005 (ip), vehicle: saline 95 % of control | dose: 15.0 mg/kg/injection, schedule: Q01DX005 (ip), vehicle: saline 100 % of control

CCCCCCCCCCCCCCCCSc1ccc(C)cc1
inactive: dose: 25.0 mg/kg/injection, schedule: Q04DX003 (ip), vehicle: other 105 % of control | dose: 50.0 mg/kg/injection, schedule: Q04DX003 (ip), vehicle: other 95 % of control | dose: 100.0 mg/kg/injection, schedule: Q04DX003 (ip), vehicle: other 100 % of control
